Measured values as given in patent publication US8350027B2, “Dual-acting pyrazole antihypertensive agents” (Theravance, Inc., priority 2009, dated 2013).

What was measured:
human AT1 receptor = molecular target: T1, human AT1 receptor (Homo sapiens, UniProt P30556); experiment: AT1 radioligand binding assay (displacement of [Eu]AngII); details: membranes of CHO-K1 cells expressing cloned human AT1 receptor; values given as lower bounds; read-out: AT1 pKi (converted)
T1 construct: expressed in transfected cells; host or cells: CHO-K1
T1 sequence (P30556 1-359): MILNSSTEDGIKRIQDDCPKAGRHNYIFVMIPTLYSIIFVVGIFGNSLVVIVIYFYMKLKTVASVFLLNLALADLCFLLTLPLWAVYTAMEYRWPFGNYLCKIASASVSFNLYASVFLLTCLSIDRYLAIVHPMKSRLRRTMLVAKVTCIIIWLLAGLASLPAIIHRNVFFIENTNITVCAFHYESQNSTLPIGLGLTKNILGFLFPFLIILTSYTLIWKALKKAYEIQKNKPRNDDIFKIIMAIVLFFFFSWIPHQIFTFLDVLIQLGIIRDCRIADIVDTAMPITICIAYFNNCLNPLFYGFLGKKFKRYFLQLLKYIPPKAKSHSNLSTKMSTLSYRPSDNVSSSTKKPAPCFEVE
Procedure, shortened: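 Membranes from CHO-K1 cells stably expressing cloned human AT1, 0.2 μg protein, in 50 mM Tris/HCl pH 7.5, 5 mM MgCl2, 0.025% BSA. Compounds displaced [Eu]AngII over 120 min in the dark at room temperature or 37° C; filter-bound TRF read. Nonspecific binding with 10 μM angiotensin II; IC50 converted to Ki via Cheng-Prusoff, reported as pKi.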

NEP enzyme = molecular target: T2, NEP enzyme (Homo sapiens, UniProt P08473); experiment: NEP enzyme inhibition assay (fluorogenic peptide substrate); assay type: biochemical; details: values given as lower bounds; * = prodrugs, may not exhibit NEP activity in an in vitro assay; read-out: NEP pIC50 (converted)
T2 construct: purchased R&D Systems, Minneapolis, Minn; 1182-ZN
T2 sequence (P08473 52-750 limits assumed): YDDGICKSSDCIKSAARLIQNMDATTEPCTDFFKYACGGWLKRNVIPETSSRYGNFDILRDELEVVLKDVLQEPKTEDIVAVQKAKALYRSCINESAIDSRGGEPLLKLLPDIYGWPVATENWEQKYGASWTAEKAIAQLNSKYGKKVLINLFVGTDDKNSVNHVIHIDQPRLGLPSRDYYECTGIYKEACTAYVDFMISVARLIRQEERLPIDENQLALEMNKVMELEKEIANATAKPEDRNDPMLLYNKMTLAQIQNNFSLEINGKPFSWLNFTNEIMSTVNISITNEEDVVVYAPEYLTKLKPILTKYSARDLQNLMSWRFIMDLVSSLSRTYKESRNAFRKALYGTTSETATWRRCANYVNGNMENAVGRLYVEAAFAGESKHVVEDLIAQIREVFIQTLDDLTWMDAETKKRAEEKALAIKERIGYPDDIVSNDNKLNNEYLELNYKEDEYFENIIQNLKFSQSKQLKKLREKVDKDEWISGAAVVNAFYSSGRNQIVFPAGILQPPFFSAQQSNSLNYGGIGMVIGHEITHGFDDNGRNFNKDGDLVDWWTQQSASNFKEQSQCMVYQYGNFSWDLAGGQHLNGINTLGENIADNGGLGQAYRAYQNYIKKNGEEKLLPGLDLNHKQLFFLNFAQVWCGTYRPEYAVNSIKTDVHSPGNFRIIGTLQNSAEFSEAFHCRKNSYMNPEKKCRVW
Procedure, shortened: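 Recombinant human NEP was run with Mca-BK2 (10 μM) at room temperature in Tris buffer with 1 μM Zn. Compounds (10 μM–20 pM, 12 points) were pre-equilibrated 10 min, then reacted 20 min and acid-stopped. Fluorescence ex 320/em 405 nm, one-site competition fit gives pIC50. Thiol compounds may be pre-treated with 400 μM TCEP.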

| SMILES | Ki (human AT1 receptor) [nM] | IC50 (NEP enzyme) [nM] |
| --- | --- | --- |
| CCCc1cc(C(=O)N[C@H](Cc2ccccc2)[C@@H](O)C(=O)O)nn1Cc1cnc(-c2ccccc2-c2nnn[nH]2)cn1 [Example 17-3, (2R,3R)-3-(1-((5-(2-(1H-tetrazol-5-yl)phenyl)pyrazin-2-yl)methyl)-5-propyl-1H-pyrazole-3-carboxamido)-2-hydroxy-4-phenylbutanoic acid] | ≤ 10 | ≤ 100 |
| CCCc1cc(C(=O)N[C@@H](CS)Cc2ccccc2)nn1Cc1ccc(-c2ccccc2-c2nnn[nH]2)nc1 [Example 14-2, 5-Propyl-1-{6-[2-(1H-tetrazol-5-yl)phenyl]pyridin-3-ylmethyl}-1H-pyrazole-3-carboxylic acid ((R)-1-benzyl-2-mercaptoethyl)amide] | ≤ 10 | ≤ 100 |
| CCCc1cc(C(=O)N[C@@H](CS)CC(C)C)nn1Cc1ccc(-c2ccccc2C(=O)O)cc1F [Example 9-1, 3′-Fluoro-4′-[3-((R)-1-mercaptomethyl-3-methylbutylcarbamoyl)-5-propylpyrazol-1-ylmethyl]biphenyl-2-carboxylic acid] | ≤ 100 | ≤ 100 |
| CCCc1cc(C(=O)N[C@H](Cc2ccccc2)[C@@H](O)C(=O)O)nn1Cc1ccc(-c2ccccc2S(=O)(=O)NC(=O)c2ccccc2)cc1 [Example 7-12, (2R,3R)-3-{[1-(2′-Benzoylsulfamoylbiphenyl-4-ylmethyl)-5-propyl-1H-pyrazole-3-carbonyl]amino}-2-hydroxy-4-phenylbutyric acid] | ≤ 10 | ≤ 1000 |
| CCCc1cc(C(=O)N[C@H](Cc2ccccc2)[C@@H](O)C(=O)O)nn1Cc1ccc(-c2ccccc2S(=O)(=O)NC(=O)N2CCCC2)cc1 [Example 7-21, (2R,3R)-2-Hydroxy-4-phenyl-3-[(5-propyl-1-{2′-[(pyrrolidine-1-carbonyl)sulfamoyl]biphenyl-4-ylmethyl}-1H-pyrazole-3-carbonyl)amino]butyric acid] | ≤ 100 | ≤ 100 |
| CCCc1cc(C(=O)N[C@@H](CC(=O)O)Cc2ccccc2Cl)nn1Cc1ccc(-c2ccccc2S(=O)(=O)NC(C)=O)cc1 [Example 6-27, (R)-3-{[1-(2′-Acetylsulfamoylbiphenyl-4-ylmethyl)-5-propyl-1H-pyrazole-3-carbonyl]amino}-4-(2-chlorophenyl)butyric acid] | ≤ 10 | ≤ 1000 |
| CCCc1cc(C(=O)N[C@@H](CC(=O)NO)Cc2ccccc2)nn1Cc1ccc(-c2ccccc2S(=O)(=O)NC(C)=O)cc1F [Example 6-16, 1-(2′-Acetylsulfamoyl-3-fluorobiphenyl-4-ylmethyl)-5-propyl-1H-pyrazole-3-carboxylic acid ((R)-1-hydroxycarbamoylmethyl-2-phenylethyl)amide] | ≤ 10 | ≤ 100 |
| CCCc1cc(C(=O)N[C@H](Cc2ccccc2)[C@@H](O)C(=O)O)nn1Cc1ccc(-c2ccccc2S(=O)(=O)NC(=O)COC)cc1 [Example 7-8, (2R,3R)-2-Hydroxy-3-({1-[2′-(2-methoxyacetylsulfamoyl)biphenyl-4-ylmethyl]-5-propyl-1H-pyrazole-3-carbonyl}amino)-4-phenylbutyric acid] | ≤ 10 | ≤ 1000 |
| CCOc1cc(C(=O)N[C@@H](CS)Cc2ccccc2)nn1Cc1ccc(-c2ccccc2S(=O)(=O)NC(C)=O)cc1F [Example 6-1, 1-(2′-Acetylsulfamoyl-3-fluorobiphenyl-4-ylmethyl)-5-ethoxy-1H-pyrazole-3-carboxylic acid ((R)-1-benzyl-2-mercaptoethyl)amide] | ≤ 10 | ≤ 100 |
| CCCc1cc(C(=O)N[C@H](Cc2ccccc2)[C@@H](O)C(=O)O)nn1Cc1ccc(-c2ccccc2-n2nn[nH]c2=O)cc1 [Example 16-3, (2R,3R)-2-Hydroxy-3-({1-[2′-(5-oxo-4,5-dihydrotetrazol-1-yl)-biphenyl-4-ylmethyl]-5-propyl-1H-pyrazole-3-carbonyl}amino)-4-phenylbutyric acid] | ≤ 10 | ≤ 100 |
| CCCc1cc(C(=O)N[C@@H](CS)Cc2ccccc2)nn1Cc1ccc(-c2ccccc2C(=O)O)cc1 [Example 9-6, 4′-[3-((R)-1-Mercaptomethyl-2-phenylethylcarbamoyl)-5-propylpyrazol-1-ylmethyl]biphenyl-2-carboxylic acid] | ≤ 100 | ≤ 100 |
| CCCc1cc(C(=O)N[C@@H](CS)CC(C)C)nn1Cc1ccc(-c2ccccc2-c2nnn[nH]2)cc1 [Example 3-7, 5-Propyl-1-[2′-(1H-tetrazol-5-yl)biphenyl-4-ylmethyl]-1H-pyrazole-3-carboxylic acid ((R)-1-mercaptomethyl-3-methylbutyl)amide] | ≤ 10 | ≤ 100 |
| CCCc1cc(C(=O)N[C@@H](CC(=O)O)Cc2ccccc2C(F)(F)F)nn1Cc1ccc(-c2ccccc2-c2nnn[nH]2)c(F)c1 [Example 3-19, (R)-3-({1-[2-Fluoro-2′-(1H-tetrazol-5-yl)-biphenyl-4-ylmethyl]-5-propyl-1H-pyrazole-3-carbonyl}amino)-4-(2-trifluoromethylphenyl)butyric acid] | ≤ 100 | ≤ 1000 |
| CCCc1cc(C(=O)N[C@H](Cc2ccccc2)[C@@H](O)C(=O)O)nn1Cc1ccc(-c2ccccc2S(=O)(=O)NC(=O)CO)cc1 [Example 7-15, (2R,3R)-2-Hydroxy-3-({1-[2′-(2-hydroxyacetylsulfamoyl)biphenyl-4-ylmethyl]-5-propyl-1H-pyrazole-3-carbonyl}amino)-4-phenylbutyric acid] | ≤ 10 | ≤ 100 |
| CCCCc1cc(C(=O)N[C@@H](CS)CC(C)C)nn1Cc1ccc(-c2ccccc2C(=O)O)cc1F [Example 9-3, 4′-[5-Butyl-3-((R)-1-mercaptomethyl-3-methylbutylcarbamoyl)-pyrazol-1-ylmethyl]-3′-fluorobiphenyl-2-carboxylic acid] | ≤ 100 | ≤ 100 |
| CCCc1cc(C(=O)N[C@@H](CS)Cc2ccccc2)nn1Cc1ccc(-c2ccccc2-c2nnn[nH]2)cc1 [Example 3-6, 5-Propyl-1-[2′-(1H-tetrazol-5-yl)biphenyl-4-ylmethyl]-1H-pyrazole-3-carboxylic acid ((R)-1-benzyl-2-mercaptoethyl)amide] | ≤ 10 | ≤ 100 |
| CCCc1cc(C(=O)N[C@H](CC(C)C)CN(O)C=O)nn1Cc1ccc(-c2ccccc2-c2nnn[nH]2)cc1 [Example 3-25, 5-Propyl-1-[2′-(1H-tetrazol-5-yl)-biphenyl-4-ylmethyl]-1H-pyrazole-3-carboxylic acid {(R)-1-[(formylhydroxyamino)methyl]-3-methylbutyl}amide] | ≤ 10 | ≤ 100 |
| CCCc1cc(C(=O)N[C@H](CC(C)C)CN(O)C=O)nn1Cc1ccc(-c2ccccc2S(=O)(=O)NC(C)=O)cc1 [Example 6-15, 1-(2′-Acetylsulfamoyl-biphenyl-4-ylmethyl)-5-propyl-1H-pyrazole-3-carboxylic acid {(R)-1-[(formyl-hydroxy-amino)-methyl]-3-methylbutyl}amide] | ≤ 10 | ≤ 100 |
| CCCc1cc(C(=O)N[C@@H](CC(=O)O)Cc2ccccc2)nn1Cc1ccc(-c2ccccc2-n2nn[nH]c2=O)cc1 [Example 16-4, (R)-3-({1-[2′-(5-Oxo-4,5-dihydrotetrazol-1-yl)biphenyl-4-ylmethyl]-5-propyl-1H-pyrazole-3-carbonyl}amino)-4-phenylbutyric acid] | ≤ 10 | ≤ 1000 |
